Assays:
B-16 melanoma = assay: Potentiation of cyclophosphamide (Cytoxan) activity against B16 melanoma in mice; assay type: in vivo, BDF1 mice
Protocol: BDF1 male mice were inoculated subcutaneously with 0.25 ml. of a 10% B-16 melanoma homogenate. Cyclophosphamide was administered intraperitoneally at 80 mg./kg. the second day following the day of tumor implantation. Test compounds were given intraperitoneally on days +6, +8 and +10 relative to tumor implantation. […]
BDF1 male mice inoculated subcutaneously with 0.25 ml. of a 10% tumo
homogenate on day 0. Drugs were administered intraperitoneally;
cyclophosphoamide on day 2, 3,6bis(2-diethylaminoethoxy)acridine
trihydrochloride on days 6, 8 and 10.
^1 Number of survivors over number of mice treated.

[1] = system: Rauscher Virus-Induced Leukemia; assay: Restoration of antibody formation in mice with Rauscher virus-induced leukemia; assay type: in vivo, Balb/c mice; details: 100 mg/kg IP
normal mouse bone marrow = assay: Effect on normal mouse bone marrow; assay type: in vivo, C57 BL6 male mice; details: 24 hours after treatment; test compound oral, Cytoxan intraperitoneal
Protocol: The effect of drugs on normal mouse bone marrow is evaluated by determining total cell counts of femurs and by the ability of surviving cells to form colonies in semi-solid medium. The test compound is administered orally and the reference drug Cytoxan is administered intraperitoneally to C57 BL6 male mice. One femur from each of three mice per dose level is assayed 24 hours after treatment. Counts of nucleated cells are performed on pooled marrow suspensions and the clonogenic assay is performed by plating 50,000 cells in one ml. of culture medium in each of four culture dishes. The medium to support bone marrow progenitor cell growth is McCoy's medium supplemented with 0.9% methocel, 1.8% human serum albumin, 10% bovine fetal serum and 10% "conditioned" L-cell medium. Cultures are incubated at 37° C. in a humidified atmosphere and colonies are counted at seven days.

Lewis lung carcinoma = assay: Surgical-adjuvant antitumor activity against Lewis lung carcinoma implanted subcutaneously in footpads; assay type: in vivo, BDF1 mice; details: for Average % of tumor weight inhibition / Average tumor weight: Day +11; for No. Survivors/No. Treated: at +90 days; for % Increased life-span: + significant (≥25%)
Protocol: BDF1 mice were inoculated subcutaneously in the right hind footpad with 5×10^5 viable Lewis Lung carcinoma cells, on day zero. […] A control group of mice received a saline placebo instead of drug, and another group of tumor bearing mice received the positive control drug cyclophosphamide, at 100 mg/kg, administered by intraperitoneal injection. On the 11th day after tumor implantation, the mice were anesthesized with Nembutal, and the tumor bearing feet surgically amputated above the ankle joint. The surgical incision was swabbed with alcohol and sealed with stainless steel wound clips. The tumor bearing feet were individually weighed and the average weight of a normal foot (determined by weighing amputated feet from non-tumor bearing mice of the same age, sex and body weight) was subtracted to obtain the weight of tumor tissue in the amputated foot. Mice were then observed for deaths until the 90th day after tumor implantation. […]
^1 BDF1 male mice inoculated subcutaneously in footpad with 5
× 10^5 Lewis lung tumor cells on day zero;
3,6bis(2-diethylaminoethoxy)acridine trihydrochloride administered orally
and Cyclophosphamide intraperitoneally, on days 1, 7, and 13 following
^2 Average tumor weight determined after surgical amputation of tumor
bearing foot on day 11 following tumor implantation.

[2] = system: natural killer lymphocytes (NK cells); assay: Stimulation of NK-cell activity in normal mice
[3] = system: Rauscher Virus-Induced Leukemia; assay: Inhibition of splenomegaly in mice with Rauscher virus-induced leukemia; assay type: in vivo, Balb/c mice
[4] = 25 mg/kg i.p. + cyclophosphamide 80 mg/kg
[5] = 25 mg/kg i.p. + cyclophosphamide 80 mg/kg, day 21
[6] = 50 mg/kg i.p. + cyclophosphamide 80 mg/kg
[7] = 50 mg/kg i.p. + cyclophosphamide 80 mg/kg, day 21
[8] = 100 mg/kg i.p. + cyclophosphamide 80 mg/kg
[9] = 100 mg/kg i.p. + cyclophosphamide 80 mg/kg, day 21

## CCN(CC)CCOc1ccc2cc3ccc(OCCN(CC)CC)cc3nc2c1.Cl.Cl.Cl
B-16 melanoma; [4]
  ILS (Percent increase in life span over control): 31%
  MST (Median Survival Time): 29.5 days
B-16 melanoma; [5]
  Average tumor weight: 2029 mg
  Number of survivors over number of mice treated: 8/8
B-16 melanoma; 25 mg/kg i.p. + cyclophosphamide 80 mg/kg, day 26
  Number of survivors over number of mice treated: 6/8
B-16 melanoma; 25 mg/kg i.p. + cyclophosphamide 80 mg/kg, day 26, p <0.05 vs cyclophosphamide alone and vs either drug alone
  Average tumor weight: 3125 mg
B-16 melanoma; 25 mg/kg i.p. alone
  ILS (Percent increase in life span over control): 27%
  MST (Median Survival Time): 28.5 days
B-16 melanoma; 25 mg/kg i.p. alone, day 21
  Average tumor weight: 2625 mg
  Number of survivors over number of mice treated: 7/8
B-16 melanoma; 25 mg/kg i.p. alone, day 26
  Number of survivors over number of mice treated: 5/8
B-16 melanoma; 25 mg/kg i.p. alone, day 26, p <0.05 vs untreated
  Average tumor weight: 6303 mg
B-16 melanoma; [6]
  ILS (Percent increase in life span over control): 27%
  MST (Median Survival Time): 28.5 days
B-16 melanoma; [7]
  Average tumor weight: 2041 mg
  Number of survivors over number of mice treated: 8/8
B-16 melanoma; 50 mg/kg i.p. + cyclophosphamide 80 mg/kg, day 26
  Number of survivors over number of mice treated: 7/8
B-16 melanoma; 50 mg/kg i.p. + cyclophosphamide 80 mg/kg, day 26, p <0.05 vs cyclophosphamide alone
  Average tumor weight: 4258 mg
B-16 melanoma; 50 mg/kg i.p. alone
  ILS (Percent increase in life span over control): 18%
  MST (Median Survival Time): 26.5 days
B-16 melanoma; 50 mg/kg i.p. alone, day 21
  Number of survivors over number of mice treated: 7/8
B-16 melanoma; 50 mg/kg i.p. alone, day 21, p <0.05 vs untreated
  Average tumor weight: 2168 mg
B-16 melanoma; 50 mg/kg i.p. alone, day 26
  Number of survivors over number of mice treated: 4/8
B-16 melanoma; 50 mg/kg i.p. alone, day 26, p <0.05 vs untreated
  Average tumor weight: 3111 mg
B-16 melanoma; [8]
  ILS (Percent increase in life span over control): 22%
  MST (Median Survival Time): 27.5 days
B-16 melanoma; [9]
  Average tumor weight: 1532 mg
  Number of survivors over number of mice treated: 8/8
B-16 melanoma; 100 mg/kg i.p. + cyclophosphamide 80 mg/kg, day 26
  Number of survivors over number of mice treated: 5/8
B-16 melanoma; 100 mg/kg i.p. + cyclophosphamide 80 mg/kg, day 26, p <0.05 vs cyclophosphamide alone
  Average tumor weight: 2836 mg
B-16 melanoma; 100 mg/kg i.p. alone
  ILS (Percent increase in life span over control): 22%
  MST (Median Survival Time): 27.5 days
B-16 melanoma; 100 mg/kg i.p. alone, day 21
  Number of survivors over number of mice treated: 7/8
B-16 melanoma; 100 mg/kg i.p. alone, day 21, p <0.05 vs untreated
  Average tumor weight: 1892 mg
B-16 melanoma; 100 mg/kg i.p. alone, day 26
  Number of survivors over number of mice treated: 7/8
B-16 melanoma; 100 mg/kg i.p. alone, day 26, p <0.05 vs untreated
  Average tumor weight: 4127 mg
B-16 melanoma; in combination with Cytoxan, i.p., day +26
  inhibition in local tumor growth: 50%
B-16 melanoma; monotherapy, i.p., day +26
  50% inhibition in local tumor growth, in words: failed to do so
[1]
  Serum hemagglutinin titer/saline control titer: 512/32
Normal mouse bone marrow
  Effect on total nucleated cell count of femur marrow, in words: minimal effects on the total nucleated cell count
Lewis lung carcinoma; 50 mg/kg oral
  Median survival time: > 90.0 days
  Average % of tumor weight inhibition: 38%
  Average tumor weight: 236 mg
  No. Survivors/No. Treated: 8/12
  % Increased life-span: > 200%
Lewis lung carcinoma; 100 mg/kg oral
  Median survival time: > 90.0 days
  Average % of tumor weight inhibition: 46%
  Average tumor weight: 203 mg
  % Increased life-span: > 200%
Lewis lung carcinoma; 100 mg/kg oral, ** p < .05
  No. Survivors/No. Treated: 9/12
Lewis lung carcinoma; 200 mg/kg oral
  Median survival time: > 90.0 days
  Average tumor weight: 38 mg
  % Increased life-span: > 200%
Lewis lung carcinoma; 200 mg/kg oral, * significant (≥58%)
  Average % of tumor weight inhibition: 90%
Lewis lung carcinoma; 200 mg/kg oral, ** p < .05
  No. Survivors/No. Treated: 12/12
Lewis lung carcinoma; 300 mg/kg oral
  Median survival time: > 90.0 days
  Average tumor weight: 56 mg
  % Increased life-span: > 200%
Lewis lung carcinoma; 300 mg/kg oral, * significant (≥58%)
  Average % of tumor weight inhibition: 85%
Lewis lung carcinoma; 300 mg/kg oral, ** p < .05
  No. Survivors/No. Treated: 10/12
Lewis lung carcinoma; 400 mg/kg oral
  Median survival time: > 90.0 days
  Average tumor weight: 17 mg
  % Increased life-span: > 200%
Lewis lung carcinoma; 400 mg/kg oral, * significant (≥58%)
  Average % of tumor weight inhibition: 96%
Lewis lung carcinoma; 400 mg/kg oral, ** p < .05
  No. Survivors/No. Treated: 10/12
[2]; Test 1 (CD1 mice), 75 mg/kg oral, ** p <.01
  % Cytotoxicity: 29.5%
[2]; Test 1 (CD1 mice), 150 mg/kg oral, ** p <.01
  % Cytotoxicity: 37.7%
[2]; Test 1 (CD1 mice), 300 mg/kg oral, * p <.05
  % Cytotoxicity: 25.8%
[2]; Test 2 (BDF1 hybrids), 75 mg/kg oral, ** p <.01
  % Cytotoxicity: 44.4%
[2]; Test 2 (BDF1 hybrids), 150 mg/kg oral, ** p <.01
  % Cytotoxicity: 40.9%
[2]; Test 2 (BDF1 hybrids), 300 mg/kg oral, * p <.05
  % Cytotoxicity: 38.2%
[2]; mouse, in vivo
  Stimulation of NK cell activity, in words: active in this test
[3]; 50 mg/kg
  % Reduction in splenomegaly: 68%
[3]; 100 mg/kg
  % Reduction in splenomegaly: 71%

From patent publication US4314061A, “Certain 3,6-bis-(heteroaminoalkoxy) acridines” (priority 1980, dated 1982)
